Assay results as given in patent publication US20180235993A1 (priority 2000, published 2018).

Experiments:
[1] = Bioavailability assay in Cynomolgus monkeys; type: in vivo, Cynomolgus monkey; settings: for Mean Norm AUC: mean of 3 monkeys
Protocol: Within 1 week prior to the study initiation, the cynomolgus monkey was surgically implanted with a chronic venous catheter and subcutaneous venous access port (VAP) to facilitate blood collection and underwent a physical examination including hematology and serum chemistry evaluations and the body weight was recorded. Each monkey (six total), received approximately 250 uCi of ^3H activity with each dose of active compound, namely β-D-2′-CH3-riboG at a dose level of 10 mg/kg at a dose concentration of 5 mg/mL, either via an intravenous bolus (3 monkeys, IV), or via oral gavage (3 monkeys, PO). Each dosing syringe was weighed before dosing to gravimetrically determine the quantity of formulation administered. Urine samples were collected via pan catch at the designated intervals (approximately 18-0 hours pre-dose, 0-4, 4-8 and 8-12 hours post-dosage) and processed. Blood samples were collected as well (pre-dose, 0.25, 0.5, 1, 2, 3, 6, 8, 12 and 24 hours post-dosage) via the chronic venous catheter and VAP or from a peripheral vessel if the chronic venous catheter procedure should not be possible. The blood and urine samples were analyzed for the maximum concentration (Cmax), time when the maximum concentration was achieved (Tmax), area under the curve (AUC), half life of the dosage concentration (T1/2), clearance (CL), steady state volume and distribution (Vss) and bioavailability (F), which are tabulated in Tables 2 and 3, and graphically illustrated in FIGS. 2 and 3, respectively.

BVDV (NADL strain) = experiment: Yield Reduction Assay; type: cell-based, Bovine Viral Diarrhea virus
Protocol: The assay was performed as described by Baginski, S. G.; Pevear, D. C.; Seipel, M.; Sun, S. C. C.; Benetatos, C. A.; Chunduru, S. K.; Rice, C. M. and M. S. Collett “Mechanism of action of a pestivirus antiviral compound” PNAS USA 2000, 97(14), 7981-7986, with minor modifications. Briefly, MDBK cells were seeded onto 24-well plates (2×10^5 cells per well) 24 hours before infection with BVDV (NADL strain) at a multiplicity of infection (MOI) of 0.1 PFU per cell. Serial dilutions of test compounds were added to cells in a final concentration of 0.5% DMSO in growth medium. Each dilution was tested in triplicate. After three days, cell cultures (cell monolayers and supernatants) were lysed by three freeze-thaw cycles, and virus yield was quantified by plaque assay. Briefly, MDBK cells were seeded onto 6-well plates (5×10^5 cells per well) 24 h before use. Cells were inoculated with 0.2 mL of test lysates for 1 hour, washed and overlaid with 0.5% agarose in growth medium. After 3 days, cell monolayers were fixed with 3.5% formaldehyde and stained with 1% crystal violet (w/v in 50% ethanol) to visualize plaques. FIG. 9 is a graphical illustration of the results from the Yield Reduction Assay. FIG. 8 is an image of BVDV yield reduction in the presence of increasing concentrations of β-D-2′-CH3-riboC.

YFV-17D = experiment: microbe, parasite or virus in culture; type: cell-based, Yellow fever virus vaccine strain 17D; settings: Yellow fever virus, read-out: YFV EC50
[2] = cynomolgus monkey, blood, Cynomolgus monkeys, IV 10 mg/kg
[3] = cynomolgus monkey, blood, Cynomolgus monkeys, PO 10 mg/kg

For `CC1(O)[C@@H](O)[C@@H](CO)O[C@H]1n1cnc2c(=O)[nH]c(N)nc21` (stereo partly drawn) [β-D-2′-CH3-riboG], the “Norm AUC” value ([1]; IV Monkey 1) was 293.2 ng·h/mL/mg, the “Norm AUC” value ([1]; IV Monkey 2) was 268.3 ng·h/mL/mg and the “Norm AUC” value ([1]; IV Monkey 3) was 293.4 ng·h/mL/mg. The “Mean Norm AUC” value ([1]; IV) was 284.9 ng·h/mL/mg, the “Norm AUC” value ([1]; PO Monkey 1) was 26.1 ng·h/mL/mg and the “Norm AUC” value ([1]; PO Monkey 2) was 29.0 ng·h/mL/mg. For the same compound, the “Norm AUC” value ([1]; PO Monkey 3) was 61.3 ng·h/mL/mg, the “Mean Norm AUC” value ([1]; PO) was 38.8 ng·h/mL/mg and the F ([1]; Table 3, Cynomolgus monkeys, 10 mg/kg) was 13.8%. It also gave a bioavailability ([1]; cynomolgus monkey, blood, 10 mg/kg, Table 2, monkeys, PO vs IV, read-out: F (oral bioavailability)) of 13.6%, an AUC ([1]; cynomolgus monkey, blood, iv, 10 mg/kg, Cynomolgus monkeys, IV 10 mg/kg) of 8760 ± 4210 ng·h/mL and an AUC ([1]; cynomolgus monkey, blood, iv, 10 mg/kg, IV Monkey 1, dose 46.44 mg (10 mg/kg)) of 13600 ng·h/mL. It also gave an AUC ([1]; cynomolgus monkey, blood, iv, 10 mg/kg, IV Monkey 2, dose 24.53 mg (10 mg/kg)) of 6580 ng·h/mL, an AUC ([1]; cynomolgus monkey, blood, iv, 10 mg/kg, IV Monkey 3, dose 20.72 mg (10 mg/kg)) of 6080 ng·h/mL and an AUC ([1]; cynomolgus monkey, blood, po, 10 mg/kg, Cynomolgus monkeys, PO 10 mg/kg) of 1170 ± 590 ng·h/mL. For the same compound, the AUC ([1]; cynomolgus monkey, blood, po, 10 mg/kg, PO Monkey 1, dose 29.04 mg (10 mg/kg)) was 758 ng·h/mL, the AUC ([1]; cynomolgus monkey, blood, po, 10 mg/kg, PO Monkey 2, dose 30.93 mg (10 mg/kg)) was 898 ng·h/mL and the AUC ([1]; cynomolgus monkey, blood, po, 10 mg/kg, PO Monkey 3, dose 30.04 mg (10 mg/kg)) was 1840 ng·h/mL. It also gave a Cmax [1, 2] of 6950 ± 1890 ng/mL, a Tmax [1, 2] of 0.25 h and a clearance [1, 2] of 21.3 mL/min/kg. For the same compound, the half-life [1, 2] was 7.9 ± 5.4 h, the Vd ([1]; cynomolgus monkey, blood, Cynomolgus monkeys, IV 10 mg/kg, read-out: Vss) was 2.09 ± 0.54 L/kg and the Cmax [1, 3] was 218 ± 132 ng/mL. For the same compound, the Tmax [1, 3] was 2 ± 1 h, the half-life [1, 3] was 10.3 ± 4.1 h and the “Conc. for 6-log Reduction” value (BVDV (NADL strain)) was 20 μM. For the same compound, the “Yield Reduction 6 log10 reduction (μM)” value (BVDV (NADL strain)) was 20 μM, the “reduction in yield reduction assay” value (BVDV (NADL strain)) was 4 log and the EC90 (BVDV (NADL strain); Bovine viral diarrhea virus isolates and strains, Table 13, BVDV) was 3000 nM. For the same compound, the EC50 (YFV-17D) was 1200 nM.
